Results from patent publication US20060084135A1, “Compositions for manipulating the lifespan and stress response of cells and organisms” (priority 2003, published 2006).
Structures can show the parent of a compound that is named as a salt. Where two headings read alike, the source gives them in different places.

Experiments:
S. cerevisiae = experiment: Yeast replicative lifespan; format: cell-based; details: 10 μM; for % change in yeast replicative lifespan relative to untreated organisms: 2% glucose YPD, untreated = 100%
Protocol: Average lifespan was determined for wild type untreated (□), quercetin (◯) and piceatannol (●).

recombinant human SIRT1 = target: T1, recombinant human SIRT1 (Homo sapiens, UniProt Q96EB6); experiment: SIRT1 fluorescent deacetylation assay (p53-382 acetylated peptide substrate); format: biochemical
T1 sequence (Q96EB6 1-747): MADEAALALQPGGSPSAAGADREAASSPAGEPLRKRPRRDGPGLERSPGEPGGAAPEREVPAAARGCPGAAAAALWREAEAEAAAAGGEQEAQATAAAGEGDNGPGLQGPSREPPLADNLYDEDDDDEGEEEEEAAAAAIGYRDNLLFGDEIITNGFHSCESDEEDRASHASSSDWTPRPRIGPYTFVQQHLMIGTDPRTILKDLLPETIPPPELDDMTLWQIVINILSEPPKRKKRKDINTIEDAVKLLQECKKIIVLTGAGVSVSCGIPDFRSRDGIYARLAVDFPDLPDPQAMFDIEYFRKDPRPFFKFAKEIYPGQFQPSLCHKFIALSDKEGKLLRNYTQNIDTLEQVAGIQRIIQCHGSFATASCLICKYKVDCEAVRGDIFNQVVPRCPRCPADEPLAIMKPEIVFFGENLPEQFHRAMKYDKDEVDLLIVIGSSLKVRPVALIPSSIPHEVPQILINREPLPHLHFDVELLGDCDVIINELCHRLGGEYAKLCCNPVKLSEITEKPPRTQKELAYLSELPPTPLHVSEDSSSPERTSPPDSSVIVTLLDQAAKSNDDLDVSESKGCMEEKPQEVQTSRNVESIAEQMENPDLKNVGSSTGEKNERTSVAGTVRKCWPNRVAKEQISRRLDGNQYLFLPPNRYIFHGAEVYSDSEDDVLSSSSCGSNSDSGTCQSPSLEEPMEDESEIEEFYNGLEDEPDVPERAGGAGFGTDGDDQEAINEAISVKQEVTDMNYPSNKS

C. elegans (strain N2) = experiment: C. elegans lifespan; format: in vivo; details: N2 worms, untreated = 100%
Protocol: Thus, the presence of resveratrol in the growth media of C. elegans extends their lifespan.
The effect of some of these compounds on lifespan was determined in yeast, C. elegans and D. melanogaster, as described above.

[1] = Stability in solution (decay of SIRT1 fold-stimulation of aged stock); format: physicochemical; details: ethanol stock solution; ethanol stock 2.5 mM, room temperature, glass vials, nitrogen; assayed at 50 μM; read-out: Stability in Solution t1/2 (converted)
Excerpt: The fold-stimulation (ratio to control) obtained with a compound diluted from an aged stock solution was compared to an identical dilution from a stock solution freshly prepared from the solid compound. “t1/2” is defined as the time required for the SIRT1 fold-stimulation of the compound from the aged solution to decay to one-half of that obtained from a freshly prepared solution. […] Stocks were aged by storage at room […] temperature, in glass vials, under a nitrogen atmosphere.

[2] = Table 9, resveratrol analogs, 100 μM, 25 μM NAD+, 25 μM p53-382 acetylated peptide
[3] = Supplementary Table 2, flavones part I, 100 μM, 25 μM NAD+, 25 μM p53-382 acetylated peptide
[4] = Table 1, 100 μM compound, 25 μM NAD+, 25 μM p53-382 acetylated peptide
[5] = Supplementary Table 1, stilbenes and chalcones, 100 μM, 25 μM NAD+, 25 μM p53-382 acetylated peptide
[6] = Supplementary Table 8, compound at 10 μM, 25 μM NAD+, 25 μM p53-382 acetylated peptide
[7] = Supplementary Table 6, free radical protective compounds, 100 μM, 25 μM NAD+, 25 μM p53-382 acetylated peptide
[8] = Supplementary Table 3, flavones part II, 100 μM, 25 μM NAD+, 25 μM p53-382 acetylated peptide
[9] = Table 11, resveratrol analogs, 100 μM, 25 μM NAD+, 25 μM p53-382 acetylated peptide
[10] = Supplementary Table 4, isoflavones, flavanones, anthocyanidins, 100 μM, 25 μM NAD+, 25 μM p53-382 acetylated peptide
[11] = Table 10, resveratrol analogs, 100 μM, 25 μM NAD+, 25 μM p53-382 acetylated peptide
[12] = Table 12, resveratrol analogs, 100 μM, 25 μM NAD+, 25 μM p53-382 acetylated peptide

Oc1cc(O)cc(/C=C/c2ccc(Cl)cc2)c1 [BML-217, 3,5-Dihydroxy-4′-chloro-trans-stilbene]
% change in yeast replicative lifespan relative to untreated organisms (S. cerevisiae): 90%
Ratio to Control Rate Mean ± SE (recombinant human SIRT1; [2]): 10.6 ± 0.4

COc1ccc(/C=C/c2cc(O)cc(O)c2)cc1 [BML-233, 3,5-Dihydroxy-4′-methoxy-trans-stilbene]
Ratio to Control Rate Mean ± SE (recombinant human SIRT1): 5.48 ± 0.33
% change in C. elegans lifespan relative to untreated organisms (C. elegans (strain N2); (10) printed in the cell): 70% (10)
% change in C. elegans lifespan relative to untreated organisms (C. elegans (strain N2); (500) printed in the cell): 50% (500)

O=c1c(O)c(-c2ccc(O)c(O)c2)oc2cc(O)cc(O)c12 [Quercetin, 3,5,7,3′,4′-Pentahydroxyflavone]
Effect on lifespan (S. cerevisiae; wild type): no significant effect
Ratio to Control Rate Mean ± SE (recombinant human SIRT1; [3]): 4.59 ± 0.47
Ratio to Control Rate Mean ± SE (recombinant human SIRT1; [4]): 4.59 ± 0.47

O=c1c(O)c(-c2ccc(O)c(O)c2)oc2cc(O)ccc12 [Fisetin, 3,7,3′,4′-Tetrahydroxyflavone]
Effect on maximum lifespan (S. cerevisiae; wild type): significantly increased
Increase of average lifespan (S. cerevisiae; wild type): 55%
Ratio to Control Rate Mean ± SE (recombinant human SIRT1; [3]): 6.58
Ratio to Control Rate Mean ± SE (recombinant human SIRT1; [4]): 6.58 ± 0.69

Oc1cc(O)cc(/C=C/c2ccc(O)c(O)c2)c1 [Piceatannol, 3,5,3′,4′-Tetrahydroxy-trans-stilbene]
Effect on lifespan (S. cerevisiae; wild type): no significant effect
Ratio to Control Rate Mean ± SE (recombinant human SIRT1; [5]): 7.90 ± 0.50
Ratio to Control Rate Mean ± SE (recombinant human SIRT1; [4]): 7.90 ± 0.50
Stimulation of SIRT1 activity (recombinant human SIRT1; initial library screen): eight-fold

Oc1cc(O)cc(/C=C/c2ccccc2)c1 [Pinosylvin, 3,5-Dihydroxy-trans-stilbene]
% change in yeast replicative lifespan relative to untreated organisms (S. cerevisiae): 114%
Ratio to Control Rate Mean ± SE (recombinant human SIRT1; [2]): 9.95 ± 0.45

O=c1ccc2cc(O)c(O)cc2o1 [Esculetin]
Ratio to Control Rate Mean ± SE (recombinant human SIRT1; [6]): 1.737 ± 0.082

CC(C)c1cccc(=O)c(O)c1 [Hinokitiol, 2-hydroxy-4-isopropyl-2,4,6-cycloheptatrien-1-one]
Ratio to Control Rate Mean ± SE (recombinant human SIRT1; [7]): 2.48 ± 0.15

O=c1cc(-c2ccccc2)oc2cccc(O)c12 [5-Hydroxyflavone]
Ratio to Control Rate Mean ± SE (recombinant human SIRT1; [8]): 1.22 ± 0.19

Cl.O.O=C(O)CN(CCN(CC(=O)O)Cc1ccccc1O)Cc1ccccc1O [HBED, N,N′-Di-(2-hydroxybenzyl)ethylenediamine-N,N′-diacetic acid.HCl.H2O, reference compound]
Ratio to Control Rate Mean ± SE (recombinant human SIRT1; [7]): 1.150 ± 0.090

CC(=O)Oc1ccc(/C=C/c2cc(O)cc(O)c2)cc1 [BML-221, 3,5-Dihydroxy-4′-acetoxy-trans-stilbene]
% change in yeast replicative lifespan relative to untreated organisms (S. cerevisiae): 165%
Ratio to Control Rate Mean ± SE (recombinant human SIRT1; [9]): 3.05 ± 0.54
% change in C. elegans lifespan relative to untreated organisms (C. elegans (strain N2); 100/500 μM, E. coli as food): >100% (ongoing)
half-life [1]: 21 days

O=c1c(-c2ccc(O)cc2)coc2cc(O)cc(O)c12 [5,7,4′-Trihydroxyisoflavone]
Ratio to Control Rate Mean ± SE (recombinant human SIRT1; [10]): 1.109 ± 0.026
SIRT1 stimulating activity (in words) (recombinant human SIRT1; polyphenol screen): absence of activity

Oc1cc(O)cc(/C=C/c2ccc(F)cc2)c1 [BML-212, 3,5-Dihydroxy-4′-fluoro-trans-stilbene]
% change in yeast replicative lifespan relative to untreated organisms (S. cerevisiae): 98%
Ratio to Control Rate Mean ± SE (recombinant human SIRT1; [2]): 8.20 ± 0.69
half-life at 50 µM [1]: 2.75 days

O=C(Nc1ccc(C(=O)Nc2ccc(C(=O)Nc3ccc(S(=O)(=O)O)c4cc(S(=O)(=O)O)cc(S(=O)(=O)O)c34)cc2)cc1)Nc1ccc(C(=O)Nc2ccc(C(=O)Nc3ccc(S(=O)(=O)O)c4cc(S(=O)(=O)O)cc(S(=O)(=O)O)c34)cc2)cc1 [NF279, reference compound]
Ratio to Control Rate Mean ± SE (recombinant human SIRT1; Supplementary Table 7, miscellaneous compounds, 100 μM, 25 μM NAD+, 25 μM p53-382 acetylated peptide): 0.0035

O=c1cc(-c2ccccc2)oc2cc(O)cc(O)c12 [5,7-Dihydroxyflavone]
Ratio to Control Rate Mean ± SE (recombinant human SIRT1; [8]): 1.51 ± 0.18

O=[N+]([O-])c1ccc(/C=C/c2cc(O)cc(O)c2)cc1 [BML-229, 3,5-Dihydroxy-4′-nitro-trans-stilbene]
Ratio to Control Rate Mean ± SE (recombinant human SIRT1; [11]): 6.78 ± 0.22

Nc1c(Br)cc(Br)cc1CN[C@H]1CC[C@H](O)CC1 [Ambroxol, trans-4-(2-Amino-3,5-dibromobenzylamino)cyclohexane.HCl, reference compound]
Ratio to Control Rate Mean ± SE (recombinant human SIRT1; [7]): 1.075 ± 0.0026

O=C(/C=C/c1ccccc1)c1ccccc1 [Chalcone]
Ratio to Control Rate Mean ± SE (recombinant human SIRT1; [5]): 1.34 ± 0.17

Camptothecin [reference compound]
Ratio to Control Rate Mean ± SE (recombinant human SIRT1; [6]): 2.92 ± 0.41

CC(=O)Nc1ccc(/C=C/c2cc(O)cc(O)c2)cc1 [BML-222, 3,5-Dihydroxy-4′-acetamide-trans-stilbene]
Ratio to Control Rate Mean ± SE (recombinant human SIRT1; [12]): 1.88 ± 0.11

CCCCCCCCCCCCC/C=C/[C@@H](O)[C@@H](N)CO [Sphingosine]
Ratio to Control Rate Mean ± SE (recombinant human SIRT1; Supplementary Table 8, compound concentration not given, 25 μM NAD+, 25 μM p53-382 acetylated peptide): 0.069 ± 0.028

C[N+](C)(C)[C@@H](Cc1c[nH]c(=S)[nH]1)C(=O)[O-] [L-(+)-Ergothioneine, (S)-a-Carboxy-2,3-dihydro-N,N,N-trimethyl-2-thioxo-1H-imidazole-4-ethanaminium inner salt]
Ratio to Control Rate Mean ± SE (recombinant human SIRT1; [7]): 2.06 ± 0.48

O=c1cc(-c2cc(O)c(O)c(O)c2)oc2cc(O)cc(O)c12 [5,7,3′4′,5′-Pentahydroxyflavone]
Ratio to Control Rate Mean ± SE (recombinant human SIRT1; [3]): 6.05 ± 0.98

O=C1c2c(O)cc(O)cc2OC(c2ccc(O)c(O)c2)C1O (stereo not shown) [3,5,7,3′,4′-Pentahydroxyflavanone]
Ratio to Control Rate Mean ± SE (recombinant human SIRT1; [10]): 1.97 ± 0.22

Oc1cc(O)c2cc(O)c(-c3ccc(O)c(O)c3)[o+]c2c1.[Cl-] [Cyanidin chloride, 3,5,7,3′,4′-Pentahydroxyflavylium chloride]
Ratio to Control Rate Mean ± SE (recombinant human SIRT1; [10]): 0.451 ± 0.015

CC(C)c1ccc(/C=C/c2cc(O)cc(O)c2)cc1 [BML-231, 3,5-Dihydroxy-4′-isopropyl-trans-stilbene]
Ratio to Control Rate Mean ± SE (recombinant human SIRT1; [11]): 6.01 ± 0.15

O=c1c(O)c(-c2cccc(O)c2O)oc2ccc(O)cc12 [3,6,2′,3′-Tetrahydroxyflavone]
Ratio to Control Rate Mean ± SE (recombinant human SIRT1; [8]): 1.74 ± 0.27

O=C(/C=C/c1ccc(O)c(O)c1)Oc1ccccc1 [Caffeic Acid Phenyl Ester]
Ratio to Control Rate Mean ± SE (recombinant human SIRT1; [7]): 1.80 ± 0.16

Cc1ccc(C(=O)Nc2ccc(S(=O)(=O)O)c3cc(S(=O)(=O)O)cc(S(=O)(=O)O)c23)cc1NC(=O)c1cccc(NC(=O)Nc2cccc(C(=O)Nc3cc(C(=O)Nc4ccc(S(=O)(=O)O)c5cc(S(=O)(=O)O)cc(S(=O)(=O)O)c45)ccc3C)c2)c1 [Suramin, reference compound]
Ratio to Control Rate Mean ± SE (recombinant human SIRT1): −0.0002

Oc1cc(O)cc(/C=C/c2ccc3ccccc3c2)c1 [BML-218, (E)-1-(3,5-Dihydroxyphenyl)-2-(2-napthyl) ethene]
Ratio to Control Rate Mean ± SE (recombinant human SIRT1; [9]): 3.05 ± 0.37

Oc1ccc(/C=C/c2ccccc2)cc1O [3,4-Dihydroxy-trans-stilbene]
Ratio to Control Rate Mean ± SE (recombinant human SIRT1; [12]): 1.64 ± 0.10

CC1=NN(c2ccccc2)C(=O)C1 [MCI-186, 3-Methyl-1-phenyl-2-pyrazolin-5-one, reference compound]
Ratio to Control Rate Mean ± SE (recombinant human SIRT1; [7]): 1.2513 ± 0.0080

O=c1cc(-c2ccc(O)cc2)oc2ccccc12 [4′-Hydroxyflavone]
Ratio to Control Rate Mean ± SE (recombinant human SIRT1; [8]): 1.73 ± 0.12

O=C(/C=C/c1ccc(O)c(O)c1)c1c(O)cc(O)cc1O [3,4,2′,4′,6′-Pentahydroxychalcone]
Ratio to Control Rate Mean ± SE (recombinant human SIRT1; [5]): 2.80 ± 0.32
